Assay results taken from patent US20130197073A1, “HYPOCHOLESTEROLEMIC, ANTI-INFLAMMATORY AND ANTIEPILEPTIC NEUROPROTECTIVE COMPOUND” (NEURON BIOPHARMA, S.A., priority 2010, published 2013).
Where two headings read alike, the source gives them in different places.

What was measured:
[1] = PAMPA, 18 h, 100 μM, pH 7.4
From the text: (§1) To that end, the BBB was mimicked in an in vitro system that allowed evaluating the compound without using cells, and where the so-called PAMPA (Parallel Artificial Membrane Permeation Assay) was used, using a sandwich system considering the crossing of compounds by means of passive diffusion.
(§2) A mixture of marketed lipids derived from pig brain with a phospholipid composition very similar to that which forms the barrier and known as PBL (Porcine Polar Brain Lipid) was used to mimic the blood-brain barrier. This compound was stored at −20° C. dissolved in dodecane at 100 μg/ml in glass vials.
(§3) To that end, a 1/100 dilution of the compounds was performed, being the DMSO content in all cases 1%.
(§4) Five microliters of PBL at 20 μg/ml prepared from the frozen stock at 100 μg/mL were added in a 96-well filter plate, with a PVDF membrane and a pore size of 45 μm (MAIPN4550, Millipore). After 2 minutes, 300 μl of the phosphate buffer used to dilute the compounds were added. […] After that time, 100 μl from the wells of the donor plates and acceptor plates were transferred to a special 96-well plate for UV reading. […] The percentage of barrier crossing as well as the effective permeability (Pe) were calculated from the spectrophotometric data. […]
(§5) [Drug]acceptor=Absorbance of the acceptor well
(§6) [Drug]equilibrium=Absorbance of the mean of the basal wells/2 […]

[2] = test system: human neuroblastoma SK-N-MC cells; assay: Inhibition of DNA fragmentation (sub-G1, flow cytometry) in camptothecin cell model of apoptosis; assay type: cell-based; conditions: pretreatment 24 hours at 10 μM; 50 μM CPT 6 hours
Procedure: The assay was performed on human neuroblastoma SK-N-MC cells in culture, maintained as described in section 2.1.
The inhibition caused by compound NST0060 with respect to apoptosis caused by treatment with camptothecin (CPT), which inhibits the topoisomerase I enzyme, prevents DNA duplication and triggers apoptotic cell death. These cells, not exceeding 15 passages, were seeded on 6-well plates treated for adherent cells with a cell concentration of 7×10^5 cells/well; 2 wells of the plate were seeded for each assay condition.
After 24 hours of cell incubation (at 37° C. and 5% CO2), cell pretreatment was performed with 10 and 40 μM of NST0060 for 24 hours; they were subsequently treated with 50 μM CPT for 6 hours. Furthermore, Z-VAD-fmk at 50 μM was used as positive control for inhibition.
After treatment, the cells were collected along with their culture medium and centrifuged at 300×g for 5 minutes. The medium was removed, a washing was performed with PBS and the cells were fixed for 2 minutes with 500 μl of 70% ethanol at −20° C. […] After this time they were analyzed by flow cytometry, comparing the fluorescence of propidium iodide with respect to the amount of DNA. The percentage of apoptosis was measured on the sub-G1 region of each of the conditions.

[3] = in vitro; conditions: PAMPA, pH 7.4
From the text: as §1, §2, §3, §4, §5, §6

[4] = test system: zebrafish (Danio rerio, AB strain) embryos; conditions: in vivo
Procedure: The study of this parameter (cardiotoxicity) not only determines the heart rate of the animals but also it allows determining heart beat alterations (tachycardia, bradycardia, etc.) or heart development anomalies (pericarditis, atrophy, hypertrophy, etc.).
The determination of the heart rate of the zebrafish embryos or larvae is performed visually. The heart beat (with the help of a manual counter) is counted for a period of 15 seconds by means of a magnifying glass (magnifications of 4-40×). The heartbeat of 12 of the 30 animals used per treatment in total is counted. The number of beats obtained is multiplied by 4 to obtain the number of heart beats per minute of the animal.

[5] = test system: promoter of a gene that could be modulated by oxidative stress bound to the firefly luciferase reporter gene; assay: Oxidative stress of the brain induced by kainate in luciferase reporter mice, in vivo bioluminescence; conditions: 50 mg/kg i.p. at 24 and 0.5 hours before KA 25 mg/kg and daily; 1 to 4 dpi
Procedure: All the animals included during the experimental process were 12-week old males from the FVB/N strain who were carriers of a gene construct with the promoter of a gene that could be modulated by oxidative stress bound to the firefly luciferase reporter gene. The experiments were carried out strictly complying with the standard entitled Guidance on the Operation of Animals (Scientific Procedures, Act. 1986). The animals were subjected to their respective quarantine period and were treated with maximum precaution to minimize possible contaminations during inoculations and handling.
The animals were intraperitoneally inoculated with 25 mg/kg of kainate (KA) dissolved in PBS. Seven mice were pretreated at 24 and 0.5 hours before inoculation with KA and subsequently on a daily basis up to 7 days post-inoculation by means of intraperitoneal injection with 0.25% methyl cellulose in PBS as a vehicle (vehicle+KA administration regimen), and another 7 mice were pretreated at 24 and 0.5 hours before inoculation with KA and subsequently on a daily basis up to 7 days post-inoculation by means of intraperitoneal injection with compound NST0060 at a dose of 50 mg/kg (NST0060+KA administration regimen). […] Oxidative stress in the brain was monitored by means of the in vivo bioluminescence technique with the IVIS Lumina system (Caliper LS). […]

[6] = test system: IL-1β; assay: LPS model of systemic shock in mice, plasma IL-1β; assay type: in vivo; conditions: two i.p. doses of 50 mg/kg; 2 hours post-LPS
Procedure: To that end an additional assay was carried out in which all the animals included were 12-week old male C57BL6 mice. The experiments were carried out strictly complying with the standard entitled Guidance on the Operation of Animals (Scientific Procedures, Act. 1986). The animals were subjected to their respective quarantine period and were treated with maximum precaution to minimize possible contaminations during treatments and handling.
The mice were split up into three experimental groups: control group (n=8); control+LPS group (n=16); NST0060+LPS group (n=16). The mice were i.p. administered two doses of 50 mg/kg of NST0060 (in its lactone form) spaced out 12 hours from one another. 0.5% methyl cellulose in physiological saline, which was administered to the mice in the control groups with the same administration regimen, was used as a vehicle. Peripheral systemic inflammation was induced one hour after the last treatment by means of a single i.p. injection of LPS at 8 mg/kg. Half the mice in which systemic shock was induced (8 animals from the control+LPS group and 8 animals from the NST0060+LPS group) were sacrificed 2 hours after the inoculation of the LPS. Blood was taken and plasma was obtained, and both were frozen. […] The concentration of the inflammatory cytokines TNFα and IL-1β was evaluated in the plasma obtained by means of ELISA.

[7] = test system: zebrafish (Danio rerio, AB strain) embryos; assay: Zebrafish embryo acute toxicity, mortality (OECD C.15); assay type: in vivo; conditions: for Mortality (dead larvae with respect to the total): 3 days
Procedure: 30 control animals treated with dilution water and with daily replacement until the end of the assay.
30 animals treated with compound NST0060 (3 embryos for every ten replicates) diluted in dilution water at doses between 1 and 100 mg/Kg and with daily replacement of the substance during the days that the assay lasted.
After the time of exposure to the substances under study, the mortality record of the larvae was determined, results being shown in Table 2.

CCCC(CCC)C(=O)O[C@H]1C[C@@H](C)C=C2C=C[C@H](C)[C@H](CC[C@@H]3C[C@@H](O)CC(=O)O3)[C@H]21 [NST0060, 2-propylpentanoic acid (1S,3R,7S,8S,8aR)-1,2,3,7,8,8a-hexahydro-3,7-dimethyl-8-[2-[(2R,4R)-tetrahydro-4-hydroxy-6-oxo-2H-pyran-2-yl]ethyl]-1-naphthalenyl ester]
% BBB crossing [1]: 29.8 ± 2.4%
maximum protection against apoptosis (DNA fragmentation) caused by CPT [2]: 41%
Papp at 18 h, 100 μM [3]: 88 ± 12 nm/s
heart rate with respect to the controls ([4]; AB, zebrafish (Danio rerio), 3 mg/kg, 72 h): not at the dose of 3 mg/Kg
heart rate with respect to the controls ([4]; 10 mg/kg): decrease of the heart rate is detected
expression of gene associated with oxidative stress in the brain (photon emission) [5]: did not show a significant increase in the expression of this gene associated with oxidative stress
cytokine IL-1β plasma levels [6]: statistically significant decrease in cytokine IL-18 plasma levels
Mortality (dead larvae with respect to the total) ([7]; Dose 1 mg/kg): 0/30
Mortality (dead larvae with respect to the total) ([7]; Dose 3 mg/kg): 0/30
Mortality (dead larvae with respect to the total) ([7]; Dose 10 mg/kg): 7/30
Mortality (dead larvae with respect to the total) ([7]; Dose 30 mg/kg): 30/30
Mortality (dead larvae with respect to the total) ([7]; Dose 100 mg/kg): 30/30
deaths out of 30 animals ([7]; dose of 10 mg/Kg, 72 h): 7
